Values of other authors in patent US20100035755A1, “METHOD OF CONTROLLING WEEDS IN A TURF GRASS BY USING SULFONYLUREA COMPOUNDS” (Moghu Research Center Ltd., priority 2008, published 2010).
Like-named read-outs stand apart in the source and are kept apart here.

Tests used:
warm season turf grass = details: cited from earlier work
cool season turf grass = details: cited from earlier work
Poa annua = details: background statement on existing herbicides; cited from earlier work
[1] = background statement, zoysiagrass, Burmudagrass
[2] = background statement, creeping bentgrass, Kentucky bluegrass

SMILES: COc1cc(OC)nc(NC(=O)NS(=O)(=O)c2ncccc2OCC(F)(F)F)n1 [R. 2, Trifloxysulfuron]
- safety to warm season turf grass (warm season turf grass; [1]): have a safety
- safety to cool season turf grass (cool season turf grass; [2]): no safety

SMILES: COC(=O)c1c(Cl)nn(C)c1S(=O)(=O)NC(=O)Nc1nc(OC)cc(OC)n1 [R. 3, Halosulfuron-methyl]
- safety to warm season turf grass (warm season turf grass; [1]): safe
- controlling Poa annua (Poa annua): ineffective
- safety to cool season turf grass (cool season turf grass; [2]): safe

SMILES: COc1cc(OC)nc(NC(=O)NS(=O)(=O)Nc2ccccc2C(=O)C2CC2)n1 [R. 4, Cyclosulfamuron]
- safety to warm season turf grass (warm season turf grass; in vivo): safe
- controlling Poa annua (Poa annua): ineffective
- safety to cool season turf grass (cool season turf grass; in vivo): safe
